According to the NIST ThermoML archive (doi:10.1016/j.jct.2012.10.012):
Several values for one entry are separate records, joined by “and”; a condition that tells them apart may be missing. Equal values may be shown once.

Conditions: Crystal, Calculated from knudsen effusion weight loss

O=C1CNC(=O)CN1 [2,5-diketopiperazine]
Conditions | vapor or sublimation pressure
419.16 K | 0.000101 kPa and 9.91e-05 kPa and 9.65e-05 kPa
421.11 K | 0.000118 kPa and 0.000119 kPa and 0.000114 kPa
423.15 K | 0.00014 kPa and 0.000137 kPa and 0.000141 kPa
425.16 K | 0.000168 kPa and 0.000156 kPa and 0.000162 kPa
427.1 K | 0.000196 kPa and 0.000188 kPa and 0.000195 kPa
429.14 K | 0.000232 kPa and 0.000226 kPa and 0.000236 kPa
431.17 K | 0.00029 kPa and 0.000257 kPa and 0.000273 kPa
433.11 K | 0.00033 kPa and 0.00032 kPa and 0.000347 kPa
435.15 K | 0.000382 kPa and 0.00038 kPa and 0.00039 kPa
437.19 K | 0.00047 kPa and 0.000459 kPa
439.11 K | 0.000548 kPa and 0.000519 kPa and 0.00052 kPa
441.16 K | 0.000646 kPa and 0.000627 kPa and 0.000626 kPa

CC1NC(=O)C(C)NC1=O (centres undefined) [3,6-dimethyl-2,5-piperazinedione]
Conditions | vapor or sublimation pressure
388.13 K | 0.000116 kPa and 0.000126 kPa
390.16 K | 0.000142 kPa and 0.000149 kPa and 0.00014 kPa
392.15 K | 0.000171 kPa and 0.000179 kPa
394.13 K | 0.000212 kPa and 0.000216 kPa
396.14 K | 0.00026 kPa and 0.000247 kPa and 0.000267 kPa
398.15 K | 0.000309 kPa and 0.000298 kPa and 0.000325 kPa
400.13 K | 0.000387 kPa and 0.000371 kPa and 0.000388 kPa
402.13 K | 0.000454 kPa and 0.000436 kPa and 0.000463 kPa
404.15 K | 0.000543 kPa and 0.000563 kPa
406.14 K | 0.000696 kPa and 0.000677 kPa and 0.000693 kPa
408.14 K | 0.000821 kPa and 0.000818 kPa and 0.000785 kPa
410.15 K | 0.000977 kPa and 0.000955 kPa and 0.000927 kPa
